From US12576093B2, “Pharmaceutical composition for subcutaneous administration” (MANNKIND CORPORATION, priority 2019, dated 2026)
Like-named read-outs stand apart in the source and are kept apart here.

Tests used:
[1] = cited from earlier work
[2] = cited from earlier work; remark: listed apart in the source
in vivo = conditions: male, Beagle, dog, sc, 0.837 mg/kg
[3] = dog, in vivo, sc, 0.837 mg/kg

AUC(0-t) (in vivo; AUClast): 82.9 ng·h/mL
MRT last (in vivo; MRTlast): 24.4 h
tmax (in vivo; Tmax): 30 h
Cmax [3]: 3.41 ng(mL
SMILES: CN1CCc2cccc3c2[C@H]1Cc1ccc(O)c(O)c1-3 [Apomorphine]
Solubility ([1]; in Toluene (wrapped cell r23-r24: practically insoluble)): insoluble in Toluene.
Solubility ([1]; in alcohol (wrapped cell r19-r20: sparingly soluble in water and in alcohol)): Sparingly soluble in water
Solubility ([1]; in chloroform (wrapped cell r21-r22: very slightly soluble)): water at 80°; very slightly
Solubility ([1]; in ether (wrapped cell r21-r23: very slightly soluble)): water at 80°; very slightly
Solubility ([1]; in water): Sparingly soluble in water
Stability ([2]; exposure to light and air (wrapped cell r15-r17: gradually acquires a green color)): acquires a green color on
Stability ([2]; recommended storage conditions (protect from light)): Stable under recommended
